One experiment concerns 4T1 tumor xenograft. The experiment in a line: 4T1 tumor xenograft. Format: in vivo, BALB/c mice. To be noted: SU056 50 mg/kg, oral gavage. The protocol:
Mice were subcutaneously injected with 4T1 cells and drug treatment started after three day of implantation. Mice were given either vehicle (40% PEG in saline) or SU056 (50 mg/kg) through oral route using oral gavage. FIG. 14A) Tumor volume (4T1) as a function of time. FIG. 14B) Tumor weight (4T1) at the end of the study. FIG. 14C) Body weight (4T1) as a function of time. FIG. 14D) Representative images of tumor (4T1) at the end of study. Combination of Paclitaxel and SU056 in 4T1 xenograft model. FIG. 14E) Tumor volume (4T1) as a function of time. FIG. 14F) Tumor weight (4T1) at the end of the study. FIG. 14G) Body weight (4T1) as a function of time.

A further experiment has as its system OVCAR8 OC tumors. The experiment in a line: OVCAR8 xenograft combination study. The class given is in vivo, NOD-SCID mice. Conditions: SU056 10 mg/kg daily, paclitaxel 5 mg/kg weekly, intraperitoneal, 28 days. The protocol:
In a pharmacokinetics study in vivo, injection of 20 mg/kg SU056 led to a maximum serum concentration of 28.19 μg/mL with a T1/2 of ˜45 min. We then tested the synergism of paclitaxel and SU056 co-treatment in vivo in NOD-SCID mice implanted with OVCAR8 OC tumors as described above. Mice were given daily treatment of SU056 (10 mg/kg) and weekly treatment of paclitaxel (5 mg/kg) were administered intraperitoneally. […] This likely resulted from decreased paclitaxel efflux from OVCAR8 cells in the presence of SU056.
In vivo xenograft model and drug efficacy study: All animal experiments were reviewed and approved by the Animal Care and Use Committee of Stanford University, CA, USA. Luciferase tagged ID8 (2×10^6) or OVCAR8 (5×10^6) cells were implanted into the right flank of 6-7-week-old female C57BL/6 mice and NOD/SCID mice, respectively. Respective treatment began after tumors grew to 100-200 mm^3 diameters. The ID8 syngeneic mice model was treated with a vehicle (30% PEG-300 in saline), 20 mg/kg SU093, and 20 mg/kg SU056 intraperitoneally (IP) daily for 42 days. At the end of treatment, blood was collected from each mouse and analyzed for liver toxicity parameters, including Alanine Aminotransferase (ALT), Aspartate Aminotransferase (AST), and Alkaline Phosphatase (ALKP). […]

The target of a further experiment is YB-1 (Homo sapiens, UniProt P67809). The experiment in a line: Pulldown assay using biotinylated SU056. To be noted: OVCAR8 cells and protein lysate.
Another experiment concerns OVCAR8 YBX1-shRNA1 cells. Put plainly: Cell viability assay, transduced OVCAR8 cells. To be noted: Homo sapiens, OVCAR-8, read-out: IC50 (cell viability).
The target of experiment [1] is T1, YB-1 in OVCAR4, OVCAR8, and SKOV3 cells (Homo sapiens, UniProt P67809).
T1 construct: endogenous in cells; host or cells: OVCAR4, OVCAR8, SKOV3
Put plainly: YB-1 inhibition time kinetics (YB-1 ELISA). The class given is cell-based. Conditions: 5 μM treatment for 24 h; all three OC cells. The protocol: Out of six targets identified, we selected proteins whose thermal shift is above 5° in the presence of SU056 for further study of protein expression after treatment. […] To study the in vivo effects of SU056 treatment, we analyzed ID8 tumor xenograft samples via immunohistochemistry (IHC). […] To identify the broader effects of SU056 on YB-1 and its downstream protein/activity in different ovarian cancer cell lines, we selected six different cell lines and treated them with SU056 (2.5 μM) for 12 h. Cells were analyzed for YB-1 and CD44 expression and Multidrug resistance 1 (MDR1, ABC pump mediated efflux). […] Finally, we tested the time kinetics and dose-dependent effects of SU056 on YB-1 expression. OVCAR4, OVCAR8, and SKOV3 cells were treated with SU056 (1, 2.5, and 5 μM) for 3, 6, 12, and 24 h and YB-1 expression was measured using YB-1 ELISA. […]
Total YB-1 sandwich ELISA: Total YB-1 protein level was analyzed using PathScan® Total YB1 Sandwich ELISA Kit (Cell Signaling, #12543) by following the manufacturer's protocol.
FIGS. 4A-4E: SU056 inhibits YB-1. […] FIG. 4C) Respective OC cells were treated with 2.5 μM SU056 for 12 h and YB-1 & CD44 expression and multidrug resistance activity was measured as described in the ‘method’ section. The % inhibition was calculated and compared to the control for the respective cell line. […]

T1 sequence (P67809 whole entry): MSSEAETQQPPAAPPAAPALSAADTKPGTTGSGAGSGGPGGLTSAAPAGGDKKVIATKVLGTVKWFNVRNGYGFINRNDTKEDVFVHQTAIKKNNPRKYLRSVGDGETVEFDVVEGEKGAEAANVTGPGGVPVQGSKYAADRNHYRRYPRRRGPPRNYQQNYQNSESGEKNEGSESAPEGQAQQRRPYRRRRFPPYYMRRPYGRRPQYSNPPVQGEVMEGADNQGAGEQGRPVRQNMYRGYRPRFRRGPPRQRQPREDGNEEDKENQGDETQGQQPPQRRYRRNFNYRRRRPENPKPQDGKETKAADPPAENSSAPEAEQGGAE
YB-1, sequence (P67809 whole entry): as above
From the text for OVCAR8 YBX1-shRNA1 cells: To check the dependency of SU056 activity on YB-1 expression, we also tested OVCAR8 cells transfected with YB-1 knockdown using transduction of lentiviral shRNA vectors. […] Furthermore, we also performed a cell viability assay using knockdown cells to calculate IC50 values.
Scrambled control (SC), YBX1 knockdown (1 & 2) and mCherry-YBX1 OVCAR8 cell lines were created using lentiviral based transduction and selected using puromycin resistance followed by cell shorting.
Cell viability assay: Cell viability was assessed using the standard MTT assay protocol. In brief, 5,000 cells were plated in each well of 96 well plates (Corning-Costar, #3598) and allowed to attach for 24 h. Cells were treated with a respective concentration of compounds for respective time points. A stock solution of each compound was prepared in DMSO. DMSO concentration was kept constant and maintained below 0.1%. After each incubation, 50 μL of 0.5 mg/ml MTT solution prepared in 1×PBS was added to each well followed by 1 h incubation at 37° C. and 5% CO2. MTT solution and media were then removed, and MTT formazan crystals were dissolved in 100 μL of DMSO per well. Absorbance at 570 nm for each well was recorded using a multimode plate reader to quantitate MTT crystallization. Each absorbance value was normalized to controls and converted into percent cell viability. […]

A word on the IC50: it is the concentration that inhibits the measured activity by half. Turning to `O=C1OCC2=C1C(c1cccc(F)c1)c1cc3c(cc1N2CCO)OCO3` (centres unmarked) [SU056, 9-(3-fluorophenyl)-5-(2-hydroxyethyl)-6,9-dihydro-[1,3]dioxolo[4,5-g]furo[3,4-b]quinolin-8(5H)-one], in the experiment with 4T1 tumor xenograft, the “4T1 tumor xenograft growth” value is given as “inhibit 4T1 tumor xenograft”. Also, in the experiment with OVCAR8 OC tumors, the OC tumor growth entry is recorded as “significant reduction in OC tumor growth”. Further, at YB-1, the “physical interaction with YB-1 (pulldown)” value is recorded as “physically interacts with YB-1”. Moreover, the IC50 with OVCAR8 YBX1-shRNA1 cells worked out at 15.8 µM. The molecule also came in with a YB-1 inhibition in experiment [1] of 100%.

The record behind these values is US20240016784A1, “Y BOX BINDING PROTEIN 1 INHIBITORS” (Oregon Health & Science University, priority 2020, published 2024).
